Data as given in patent publication US9108978B2, “Antimicrobial compounds” (ADELAIDE RESEARCH & INNOVATION PTY LTD, priority 2011, dated 2015).
Like-named read-outs stand apart in the source and are kept apart here.

Assays:
[1] = molecular target: biotin protein ligase from S. aureus (SaBPL) (Staphylococcus aureus, UniProt A0A3A5LBF0); test: BPL enzyme inhibition assay (3H-biotin incorporation), SaBPL; type: biochemical; conditions: for IC50: 4 nM BPL, 20 minutes at 37° C.; for selectivity towards SaBPL over HsBPL (human BPL): Hs vs SaBPL
Chain of biotin protein ligase from S. aureus (SaBPL) (A0A3A5LBF0 1-323): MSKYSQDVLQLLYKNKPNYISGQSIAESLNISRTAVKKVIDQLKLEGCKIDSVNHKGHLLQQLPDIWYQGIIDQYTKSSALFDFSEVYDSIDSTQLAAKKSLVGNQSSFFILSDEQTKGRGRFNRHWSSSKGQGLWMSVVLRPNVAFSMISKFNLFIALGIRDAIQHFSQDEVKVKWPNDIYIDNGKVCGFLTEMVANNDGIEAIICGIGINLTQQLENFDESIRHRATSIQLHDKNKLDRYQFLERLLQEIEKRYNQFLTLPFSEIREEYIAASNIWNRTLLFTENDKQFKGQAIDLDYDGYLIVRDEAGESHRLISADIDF
Protocol: (§1) Quantitation of BPL catalysed ^3H-biotin incorporation into the biotin domain substrate was performed as previously described by Polyak et al, J. Biol. Chem (1999) 274(46) 32847-54. Briefly, the reaction mixture contained: 50 mM Tris HCl pH 8.0, 3 mM ATP, 4.5 μM biotin, 0.5 μM ^3H-biotin, 5.5 mM MgCl2, 100 mM KCl, 0.1 mg/mL BSA and 10 μM biotin domain of S. aureus pyruvate carboxylase. The reaction was initiated by the addition of BPL to a final concentration of 4 nM. After 20 minutes at 37° C., 4 μL aliquots of the reaction were spotted onto Whatman paper pre-treated with biotin and trichloroacetic acid. The filters were washed twice with 10% v/v ice-cold trichloroacetic acid and once with ethanol before air-drying. Quantitation of protein-bound radiolabelled biotin was performed by liquid scintillation. One unit of enzyme activity was defined by the amount of BPL required to incorporate 1 nmol of biotin per minute. The IC50 value of each compound was determined from a dose-response curve by varying the concentration of the inhibitor under the same enzyme concentration. The data was analysed with GraphPad Prism using a non-linear fit of log10 (inhibitor) vs. normalized response. The Ki, the absolute inhibition constant for a compound, was determined using Eq 1:
The mode of inhibition was investigated by varying the concentrations of inhibitor alongside varying the concentrations of ^3H-biotin. The data was plotted as double reciprocal plots and assessed using Lineweaver-Burk analysis.
Triazoles 6.02-6.10 were assayed for inhibitory activity against the biotin protein ligases from S. aureus (SaBPL), Escherichia coli (EcBPL) and Homo sapiens (HsBPL) (Table 3). The inhibitory activity of the compounds was determined by measuring BPL activity with varying concentrations of inhibitors. From the dose-response curves IC50 values were determined and Ki values calculated.

[2] = molecular target: biotin protein ligase from Escherichia coli (EcBPL) (Escherichia coli (strain K12), UniProt P06709); test: BPL enzyme inhibition assay (3H-biotin incorporation), EcBPL; type: biochemical
Chain of biotin protein ligase from Escherichia coli (EcBPL) (P06709 whole entry, looked up): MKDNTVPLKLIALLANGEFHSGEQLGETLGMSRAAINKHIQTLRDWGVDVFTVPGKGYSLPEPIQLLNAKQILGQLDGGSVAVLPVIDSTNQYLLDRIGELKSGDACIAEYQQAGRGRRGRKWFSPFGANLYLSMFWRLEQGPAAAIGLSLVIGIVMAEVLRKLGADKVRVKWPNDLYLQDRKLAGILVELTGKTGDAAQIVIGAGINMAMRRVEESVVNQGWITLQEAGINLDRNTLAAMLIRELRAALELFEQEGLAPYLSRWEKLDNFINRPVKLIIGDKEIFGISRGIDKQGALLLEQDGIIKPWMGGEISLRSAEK
Protocol: as §1
(§2) The inhibitory activity of the compounds was determined by measuring BPL activity with varying concentrations of inhibitors. From the dose-response curves IC50 values were determined and Ki values calculated.

[3] = molecular target: biotin protein ligase from Homo sapiens (HsBPL) (Homo sapiens (Human), UniProt P50747); test: BPL enzyme inhibition assay (3H-biotin incorporation), HsBPL; type: biochemical
Chain of biotin protein ligase from Homo sapiens (HsBPL) (P50747 whole entry): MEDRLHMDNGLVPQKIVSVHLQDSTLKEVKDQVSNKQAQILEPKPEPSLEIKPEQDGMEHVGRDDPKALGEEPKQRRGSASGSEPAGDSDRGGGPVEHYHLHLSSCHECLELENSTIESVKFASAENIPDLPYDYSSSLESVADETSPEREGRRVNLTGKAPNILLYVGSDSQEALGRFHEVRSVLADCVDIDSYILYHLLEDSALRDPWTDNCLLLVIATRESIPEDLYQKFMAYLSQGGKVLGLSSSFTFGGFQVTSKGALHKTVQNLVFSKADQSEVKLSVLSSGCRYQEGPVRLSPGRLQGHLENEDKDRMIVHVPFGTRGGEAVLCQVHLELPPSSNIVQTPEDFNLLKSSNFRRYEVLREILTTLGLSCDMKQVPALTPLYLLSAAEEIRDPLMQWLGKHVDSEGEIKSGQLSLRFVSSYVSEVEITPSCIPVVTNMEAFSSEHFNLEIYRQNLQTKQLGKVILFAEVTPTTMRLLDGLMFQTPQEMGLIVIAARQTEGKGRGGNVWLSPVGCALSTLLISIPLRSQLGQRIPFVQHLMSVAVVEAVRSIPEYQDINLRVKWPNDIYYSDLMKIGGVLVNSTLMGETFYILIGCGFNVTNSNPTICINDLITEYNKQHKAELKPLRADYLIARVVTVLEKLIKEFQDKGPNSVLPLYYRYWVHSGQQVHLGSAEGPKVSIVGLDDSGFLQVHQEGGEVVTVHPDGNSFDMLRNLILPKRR
Protocol: as §1, §2

Enterococcus faecalis = test: Antimicrobial microbroth dilution assay, E. faecalis; type: cell-based
Protocol: (§3) The biotin-triazoles were assessed for their antimicrobial activity using a microbroth dilution assay as recommended by the CLSI (Clinical and Laboratory Standards Institute, Document […]-A8, 2009, Wayne, Pa.) with cation-adjusted Mueller-Hinton broth (Trek Diagnostics Systems, U.K.). Compounds were dissolved using DMSO. Serial two-fold dilutions of each compound were made using DMSO as the diluent. Trays were inoculated with 5×10^4 CFU of each strain in a volume of 100 μL (final concentration of DMSO was 5% (v/v)), and incubated at 35° C. for 16-20 hours when the optical density of the growth cultures was measured by spectroscopy at wavelength 620 nm. A library of Gram negative and Gram positive microbes was employed.

S. aureus ATCC 49775 = test: Antimicrobial microbroth dilution assay, S. aureus; type: cell-based, Staphylococcus aureus; conditions: at 8 μg/ml
Protocol: as §3, with “employed. […] Inhibition of the growth of S. aureus ATCC 49775 was measured using a microbroth dilution assay with varying concentrations of BPL inhibitors. […] The antibiotic erythromycin was also included (X).” for “employed.”

Enterococcus faecium = test: Antimicrobial microbroth dilution assay, E. faecium; type: cell-based
Protocol: as §3

M. tuberculosis BPL = M. tuberculosis BPL (Mycobacterium tuberculosis (strain ATCC 25618 / H37Rv), UniProt I6YFP0); test: BPL inhibition, M. tuberculosis BPL; type: biochemical, Mycobacteria tuberculosis
Chain of M. tuberculosis BPL (I6YFP0 whole entry, looked up): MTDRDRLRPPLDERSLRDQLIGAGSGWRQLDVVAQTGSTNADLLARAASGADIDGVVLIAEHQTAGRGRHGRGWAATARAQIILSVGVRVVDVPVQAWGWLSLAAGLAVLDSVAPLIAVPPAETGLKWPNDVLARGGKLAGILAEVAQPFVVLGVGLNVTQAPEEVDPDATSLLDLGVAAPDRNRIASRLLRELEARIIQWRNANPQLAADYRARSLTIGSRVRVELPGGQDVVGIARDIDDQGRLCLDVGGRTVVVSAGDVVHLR

[4] = calculated from IC50, [biotin]=5 μM, Km 1 μM, read-out: Ki SaBPL
[5] = read-out: Ki EcBPL (E. coli BPL)

| Molecule | IC50 [1] [µM] | Ki [1, 4] [µM] | Ki [2, 5] [µM] | Ki [3] [µM] | fold less potent against SaBPL compared to biotinol-5′-AMP 2.02 [1] [fold] | selectivity towards SaBPL over HsBPL (human BPL) [1] | Ki ([1]; read-out: Ki SaBPL) [µM] | Ki [1] [µM] | inhibition against SaBPL [1] | Ki [2] [µM] | other results |
| --- | --- | --- | --- | --- | --- | --- | --- | --- | --- | --- | --- |
| O=C1N[C@H]2[C@H](CS[C@H]2CCCCCc2cn(CCCCOc3ccc4ccccc4c3)nn2)N1 [6.07] | 7 ± 1 | 1.17 ± 0.17 | > 30 | > 30 |  |  |  |  |  |  | fold less potent against SaBPL compared to 4.01 [1]: 7 fold |
| Cc1ccc2oc(=O)n(CCCCn3cc(CCCCC[C@@H]4SC[C@@H]5NC(=O)N[C@@H]54)nn3)c2c1 [6.09] | 0.53 ± 0.01 |  | > 30 | > 30 | 3 | > 1000 fold | 0.09 ± 0.02 |  |  |  | inhibition of growth of Enterococcus faecalis (Enterococcus faecalis): no inhibition of growth; fold increase in potency against SaBPL compared to 4.01 [1]: 7 fold; selectivity towards SaBPL over EcBPL (E. coli BPL) [1]: > 1000 fold; prevention of cell growth of S. aureus ATCC 49775 (S. aureus ATCC 49775): 80%; inhibition of growth of Enterococcus faecium (Enterococcus faecium): no inhibition of growth |
| Cc1ccc2oc(=O)n(CCCCc3noc(CCCCC[C@@H]4SC[C@@H]5NC(=O)N[C@@H]54)n3)c2c1 [compound 2, 3-[4-[5-[5-[(3aS,4S,6aR)-2-oxo-1,3,3a,4,6,6a-hexahydrothieno[3,4-d]imidazol-4-yl]pentyl]-1,2,4-oxadiazol-3-yl]butyl]-5-methyl-1,3-benzoxazol-2-one] |  |  |  |  |  |  |  | 2.2 ± 0.8 |  |  | Ki (M. tuberculosis BPL): 290 ± 16 µM |
| biotin alkyne [3.12] |  |  |  |  |  |  | 0.33 ± 0.05 |  |  |  |  |
| Nc1ncnc2c1ncn2CCCCCn1cc(CCCC[C@@H]2SC[C@@H]3NC(=O)N[C@@H]32)nn1 [4.13] |  |  |  | > 10 |  |  |  | 2.86 ± 0.75 | micromolar inhibition | > 10 | fold less potent against SaBPL compared to 4.01 [1]: 4 fold |
| Cc1ccc2oc(=O)n(CCCCOP(=O)(O)OCCCCC[C@@H]3SC[C@@H]4NC(=O)N[C@@H]43)c2c1 | > 50 | > 10 |  |  |  |  |  |  |  |  |  |
| Nc1ncnc2c1ncn2CCCCn1cc(CCCCC[C@@H]2SC[C@@H]3NC(=O)N[C@@H]32)nn1 [4.01] | 4 ± 0.9 | 0.66 ± 0.15 | > 30 | > 90 | 22 | at least 400 fold |  |  | micromolar inhibition | > 90 | selectivity towards SaBPL over EcBPL (E. coli BPL) [1]: at least 400 fold; IC50 [2]: > 200 µM; IC50 ([3]; in b132 the quantity is not named): > 200 µM |
| CC1(C)O[C@@H]2[C@H](O1)[C@@H](n1cnc3c(N)ncnc31)O[C@H]2Cn1cc(CCCC[C@@H]2SC[C@@H]3NC(=O)N[C@@H]32)nn1 [4.09] |  |  |  | > 10 |  |  |  | 7.53 ± 1.9 | micromolar inhibition | > 10 | fold less potent against SaBPL compared to triazole 3.25 [1]: 4 fold |
| CC1(C)O[C@@H]2[C@H](O1)[C@@H](n1cnc3c(N)ncnc31)O[C@H]2Cn1cc(CCCCC[C@@H]2SC[C@@H]3NC(=O)N[C@@H]32)nn1 [3.25] | 11.6 ± 2.2 |  | > 30 | > 90 | 60 | > 16 fold | 1.83 ± 0.33 |  |  | > 90 |  |
